Patent US20240116985A1, “STAPLED PEPTIDES AND METHODS THEREOF” (priority 2020, published 2024)
Converted amounts (≈) assume the structure as drawn.

How the values were obtained:
[1] = test system: HEK293 cells; assay: in vitro; type: cell-based; conditions: human
Protocol: (§1) On Day 3, fluorescence was read with Nano-BRET substrates. Remove plates from incubator to allow to reach to RT (30 min). Also equilibrate CTG reagent to Rm Temp. Dilute Nano-BRET substrate 1:100 in Assay media. Add 25 uL of diluted substrate to each well and shake for 30 seconds. Read on ClarioSTAR or GloMAX right away (within 10 min). Donor emission @ 460 nm. Acceptor emission @ 618 nm. Use the same plate to measure cell viability (Cell Titer-Glo-2.0 (CTG) Viability test). After reading BRET signal, add CTG reagent to each well at 1:2 ratio and shake on orbital shaker for 2 min. Incubate at Rm Temp for 10-30 min. Read luminescence on ClarioSTAR or GloMAX. Analysis was performed using Prism. Non-linear regression. Log (inhibitor) vs response—variable slope (four parameters). For CTG data linear values (not logarithmic).

[2] = in vitro; type: cell-based; conditions: human, HEK293 cells, CTG (CellTiter Glo) Relative to Media
Protocol: as §1

[3] = Solubility in PBS; type: physicochemical; conditions: Solubility (uM)
Summary of the method: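 The PBS solution was ultracentrifuged and the supernatant analyzed by HPLC. Its peak area was divided by that of a 50 μM peptide DMSO reference injection and multiplied by 50 uM to give solubility.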

CTG (CellTiter Glo) Relative to Media ([1]; 1.25 µM): 98 | CTG (CellTiter Glo) Relative to Media ([1]; 2.5 µM): 98 | CTG (CellTiter Glo) Relative to Media ([1]; 5 µM): 95 | CTG (CellTiter Glo) Relative to Media ([1]; 10 µM): 92 | Solubility [3]: 46 µM (≈ 91.5 µg/mL)
Structure (SMILES): CC(=O)N1CCC[C@]12CC=CCCCC1(CCCC=CCCCOC(=O)N3CC[C@@](C(=O)N[C@@H](Cc4ccsc4)C(=O)N[C@@H](Cc4csc5ccccc45)C(=O)N[C@@H](CCC(N)=O)C(=O)N[C@H](C)C(N)=O)(C3)NC(=O)[C@H](CC(N)=O)NC(=O)[C@H](Cc3ccccc3)NC(=O)[C@H](C)NC(=O)[C@H](C)NC(=O)[C@H](CC(=O)O)NC(=O)[C@H](CC(=O)O)NC1=O)NC(=O)[C@H](CC(C)(C)C)NC(=O)[C@H](CC(=O)O)NC2=O (stereo partly drawn) [I-822, Ac-PL3-Asp-Npg-B5-Asp-Asp-Ala-Ala-Phe-Asn-PyrS2-3Thi-BztA-Gln-dAla-NH2]
viability at 0.625 µM [2]: 100% | viability at 1.25 µM [2]: 94% | viability at 2.5 µM [2]: 99% | viability at 5 µM [2]: 94% | viability at 10 µM [2]: 90% | viability at 20 µM [2]: 82%
